Reference: patent US8119691B2, “Method for treating airway hyper-responsiveness with lipoxin analogs” (National Institutes of Health (NIH), priority 2001, dated 2012)

Assays:
[1] = cited from earlier work
[2] = system: murine dorsal air pouches; details: murine dorsal air pouches (refs. 7, 16); cited from earlier work
[3] = system: OVA sensitized mice; assay: Lung histopathology of OVA sensitized and aerosol challenged mice; type: in vivo, mouse (BALB/c); details: LXa 10 μg; OVA-allergic mice
Protocol: FIG. 2. Lung histopathology from LXa treated mice. Mice were sensitized and aerosol challenged with OVA in the absence (left column) or presence (right column) of LXa (10 μg). Representative (n=3) lung tissue sections (magnifications: ×40 (a,b), ×100 (d), ×200 (c,e) and ×400 (f)) were obtained from formalin-fixed, paraffin-embedded lung tissue, prepared and stained with hematoxylin and eosin. Arrows denote eosinophils; br, bronchus; v, vessel.
Sensitization and challenge protocols. Five to seven week old male BALB/c (Charles River Laboratories, Wilmington, Mass.) or female hCD11b-hALX FvB transgenic mice were housed in isolation cages under viral antibody-free conditions. […] On day 18, 24 h after the last aerosol challenge, airway responsiveness to intravenous methacholine (33-1000 μg/kg) was measured, bilateral bronchoalveolar lavage (BAL) (2 aliquots of 1 ml PBS plus 0.6 mM EDTA) was performed and tissues (whole blood, lungs, mediastinal lymph nodes and spleen) were harvested for histological analysis. Lung resistance (RL) was measured using a sealed constant mass plethysmograph. […] For mice studied using a whole body plethysmograph to assess airway responsiveness (Buxco), each mouse was placed into a chamber and box pressure/time waveform was analyzed to yield the indicator of airflow obstruction, enhanced pause (Penh). […] Readings were initiated at 3 min and continued for 12 min. […]

[4] = system: OVA sensitized FVB mice; assay: Allergic airway inflammation, BAL leukocyte differentials, comparison with Montelukast (FIG. 7); type: in vivo, mouse (FVB); set-up: dose or concentration left out as unconfirmed; details: days 14-17, at least 1 h prior to OVA aerosol; BAL day 18
Source text: FIG. 7. Depicts regulation of allergic airway inflammation by 15-epi,16-para-fluoro-phenoxy-LXA4-methyl ester in comparison to a commercially available drug (Montelukast) used to treat chronic asthma.
Five to seven week old male FVB (Charles River Laboratories, Wilmington, Mass.) mice were housed in isolation cages under viral antibody-free conditions. After Harvard Medical Area IRB approval (Protocol #02570), mice were sensitized with intraperitoneal injections of ovalbumin (OVA) (Grade III; Sigma Chemical Co., St. Louis, Mo.) (10 mg) plus 1 mg aluminum hydroxide (ALUM) (J. T. Baker Chemical Co.; Phillipsburg, N.J.) as adjuvant in 0.2 ml PBS on days 0 and 7. On days 14, 15, 16 and 17, the mice received an analog of LXA4 (15-epi,16-para-fluoro-phenoxy-LXA4-methyl ester) ([…], 21.7 nmoles), montelukast ([…], 21.7 nmoles) or PBS with 1.6 mM CaCl2 and 1.6 mM MgCl2 (0.1 ml) by intravenous injection at least 1 h prior to an aerosol challenge containing either PBS or 6% OVA for 25 min/day. On day 18, 24 h after the last aerosol challenge, bilateral bronchoalveolar lavage (BAL) (2 aliquots of 1 ml PBS plus 0.6 mM EDTA) was performed. BAL fluids were centrifuged (2000 g, 10 min) and cells were resuspended in HBSS, enumerated by hemocytometer, and concentrated onto microscope slides by cytocentrifuge (STATspin) (265 g). […]

For COC(=O)CCC[C@H](O)[C@H](O)/C=C/C=C/C=C\C=C\[C@H](O)COc1ccc(F)cc1 [LXa, 15-epi,16-para-fluoro-phenoxy-LXA4-methyl ester], the metabolic inactivation [1] is given as “resists metabolic inactivation”, the “neutrophil accumulation and exudate formation” value [2] is given as “blocks neutrophil accumulation and exudate formation” and the “lung tissue leukocyte infiltration (tissue eosinophils and lymphocytes) and vascular injury” value [3] is given as “significantly reduced leukocyte infiltration”. For the same compound, the “lymphocyte reduction compared with Montelukast” value [4] was “statistically more effective than Montelukast in terms of lymphocyte reduction”.
